Data on eleven molecules can be found in PubChem BioAssay (NCI).

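Each compound was tested at five concentrations against cells in 96-well plates for 48 hours. Abbreviation: GI50, concentration required for 50% inhibition of growth. At the TGI there is no net growth.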

Test systems include BT-549 breast; OVCAR-5 ovarian; HS 578T breast; A498 renal; SNB-75 CNS; NCI-H23 lung; SK-MEL-2 melanoma.
Experiment in all cases: NCI anticancer screen, dose series, 48 h

Consider `COc1ccccc1-n1c(SCc2cc(OC)c(OC)c(OC)c2)nc2ccc(Cl)cc2c1=O`, for which the GI50 was 3.95 µM with BT-549 breast; 7.47 µM in the experiment with OVCAR-5 ovarian; 5.81 µM in the experiment with HS 578T breast; 1.76 µM in the experiment with A498 renal; 2.41 µM in the experiment on SNB-75 CNS; 5.9 µM in the experiment with NCI-H23 lung. Further, the GI50 in the experiment on SK-MEL-2 melanoma was 4.88 µM. Also, the TGI in the experiment with BT-549 breast was greater than 100 µM; with OVCAR-5 ovarian, greater than 100 µM; in the experiment on HS 578T breast, greater than 100 µM; in the experiment with A498 renal, 48.2 µM; with SNB-75 CNS, 32.7 µM; with NCI-H23 lung it was greater than 100 µM. The molecule also returned a TGI in the experiment on SK-MEL-2 melanoma greater than 100 µM.

As for `CC(=O)OC1CCC2(C)C(=CC(C3C=C4CC(OC(C)=O)CCC4(C)C4=C3C3CC5OC6(CCC(C)CO6)C(C)C5C3(C)CC4)C3=C2CCC2(C)C3CC3OC4(CCC(C)CO4)C(C)C32)C1` (stereo not drawn), the TGI in the experiment on BT-549 breast stood at 29.7 µM; in the experiment with OVCAR-5 ovarian, 35.9 µM; in the experiment with HS 578T breast it was 17 µM; in the experiment on A498 renal, 30.8 µM; with SNB-75 CNS it was 29.9 µM; with NCI-H23 lung it was 27.9 µM. For the same molecule, the TGI with SK-MEL-2 melanoma came to 33.9 µM.

In the case of `CC(=O)N1CC(F)(F)c2c(Sc3ncc(N4CCC5(CC4)COC[C@H]5N)nc3N)cccc21`, the GI50 with BT-549 breast is 10.8 µM; in the experiment with OVCAR-5 ovarian, 15.4 µM; in the experiment on HS 578T breast it was 14.6 µM; in the experiment with A498 renal, 0.402 µM; in the experiment on SNB-75 CNS, 3.19 µM; in the experiment with NCI-H23 lung, 3.35 µM. In the experiment on SK-MEL-2 melanoma, the GI50 is 24.7 µM. Moreover, the TGI with BT-549 breast was 53.7 µM; in the experiment on OVCAR-5 ovarian, greater than 100 µM; in the experiment on HS 578T breast, 59.1 µM; in the experiment on A498 renal, 4.18 µM; in the experiment with SNB-75 CNS, 38.2 µM; with NCI-H23 lung it was greater than 100 µM. The molecule also yielded a TGI with SK-MEL-2 melanoma greater than 100 µM.

`C[C@@H]1CC[C@@]2(OC1)O[C@H]1C[C@H]3[C@@H]4CC=C5C[C@@H](O[C@@H]6O[C@H](CO)[C@@H](O[C@@H]7O[C@@H](CO)[C@H](O)[C@H]7O)[C@H](O)[C@H]6O[C@@H]6O[C@@H](C)[C@H](O)[C@@H](O)[C@H]6O)CC[C@]5(C)[C@H]4CC[C@]3(C)[C@H]1[C@@H]2C`: the GI50 was 1.5 µM in the experiment with BT-549 breast; 1.29 µM with OVCAR-5 ovarian; 1.28 µM with A498 renal; 1.18 µM with SNB-75 CNS; 1.58 µM with NCI-H23 lung; 1.67 µM in the experiment on SK-MEL-2 melanoma. For the same molecule, the TGI in the experiment on BT-549 breast came out at 2.94 µM; in the experiment with OVCAR-5 ovarian, 2.56 µM; with HS 578T breast, 2.49 µM; with A498 renal, 2.55 µM; in the experiment with SNB-75 CNS it was 2.46 µM; in the experiment with NCI-H23 lung it was 2.97 µM. The TGI in the experiment with SK-MEL-2 melanoma was 3.04 µM.

Consider `COc1ccc(/C=C(\C#N)c2cc3ccccc3n2C)cc1`, for which the GI50 with BT-549 breast was 0.627 µM; with OVCAR-5 ovarian it was 0.852 µM; with HS 578T breast, 0.352 µM; in the experiment on A498 renal, 0.071 µM; in the experiment on SNB-75 CNS it was 0.198 µM; in the experiment on NCI-H23 lung it was 0.645 µM. For the same molecule, the GI50 with SK-MEL-2 melanoma is 0.471 µM. The TGI with BT-549 breast is greater than 100 µM; in the experiment with OVCAR-5 ovarian it was greater than 100 µM; with HS 578T breast it was greater than 100 µM; in the experiment on A498 renal, 0.675 µM; with SNB-75 CNS, 5.5 µM; in the experiment with NCI-H23 lung it was greater than 100 µM. This molecule came in with a TGI with SK-MEL-2 melanoma greater than 100 µM.

In the case of `O=C(NNS(=O)(=O)c1cc(C(F)(F)F)cc(C(F)(F)F)c1)c1cnn(-c2ccc(Cl)cc2)c1C(F)(F)F`, the GI50 in the experiment on BT-549 breast was 14.5 µM; with OVCAR-5 ovarian it was 17.8 µM; in the experiment on HS 578T breast, 18.4 µM; with A498 renal, 14.1 µM; with SNB-75 CNS, 24.4 µM; in the experiment with NCI-H23 lung, 18.5 µM. Moreover, the GI50 in the experiment with SK-MEL-2 melanoma was 18.5 µM. The TGI came out at 28 µM in the experiment on BT-549 breast; 33.5 µM with OVCAR-5 ovarian; 44.6 µM in the experiment with HS 578T breast; 29.3 µM in the experiment with A498 renal; 75.3 µM with SNB-75 CNS; 40.8 µM in the experiment on NCI-H23 lung. Also, the TGI in the experiment with SK-MEL-2 melanoma is 34.7 µM.

Turning to `Oc1ccc2ccccc2c1N=Nc1ccccc1`, the TGI in the experiment with BT-549 breast, in the experiment with OVCAR-5 ovarian, in the experiment with HS 578T breast, with A498 renal, in the experiment on SNB-75 CNS and with NCI-H23 lung was greater than 100 µM each time. For the same molecule, in the experiment with SK-MEL-2 melanoma, the TGI is greater than 100 µM.

For the molecule `CC(=O)/C(C)=N/N/C(N)=N\S(=O)(=O)c1cc(C(=O)Nc2ccccc2)c(Cl)cc1SCc1ccccc1`, the GI50 in the experiment with BT-549 breast is 23.8 µM; with OVCAR-5 ovarian it was greater than 100 µM; in the experiment with HS 578T breast it was greater than 100 µM; in the experiment with A498 renal, 55.9 µM; in the experiment on SNB-75 CNS, greater than 100 µM; with NCI-H23 lung it was 42.8 µM. Besides, the GI50 in the experiment with SK-MEL-2 melanoma was 43.5 µM. For the same molecule, the TGI in the experiment with BT-549 breast, with OVCAR-5 ovarian, in the experiment on HS 578T breast, in the experiment on A498 renal, with SNB-75 CNS and in the experiment on NCI-H23 lung was greater than 100 µM in each case. This molecule registered a TGI in the experiment on SK-MEL-2 melanoma greater than 100 µM.

In the case of `COc1ccc(C(O)c2cc3c(N)c(C(=O)Nc4cccc(Br)c4)sc3nc2C)cc1` (stereo not drawn), the GI50 in the experiment with BT-549 breast was 0.17 µM; with OVCAR-5 ovarian, 0.216 µM; in the experiment on HS 578T breast it was 0.101 µM; with A498 renal, 0.0536 µM; in the experiment with SNB-75 CNS, 0.0693 µM; with NCI-H23 lung it was 0.181 µM. Further, the GI50 in the experiment with SK-MEL-2 melanoma is 0.572 µM. The TGI in the experiment with BT-549 breast is greater than 23.2 µM; in the experiment with OVCAR-5 ovarian, greater than 100 µM; in the experiment with HS 578T breast, greater than 21.7 µM; with A498 renal it was 0.231 µM; in the experiment with NCI-H23 lung, greater than 60.4 µM; in the experiment on SK-MEL-2 melanoma, greater than 21.9 µM.

Consider `C#Cc1ccc(NC(=O)c2ccc(/C=C/C(=O)c3nccn3C)cc2)cc1`, for which the GI50 in the experiment on BT-549 breast was 0.358 µM; in the experiment with OVCAR-5 ovarian, 0.488 µM; with HS 578T breast, 0.853 µM; in the experiment on A498 renal, 0.512 µM; in the experiment on SNB-75 CNS it was 0.344 µM; in the experiment with NCI-H23 lung, 0.46 µM. Also, the GI50 in the experiment on SK-MEL-2 melanoma was 1.63 µM. Further, the TGI is 0.845 µM in the experiment on BT-549 breast; 1.19 µM with OVCAR-5 ovarian; 11.9 µM in the experiment on HS 578T breast; 1.39 µM in the experiment with A498 renal; 0.809 µM with SNB-75 CNS; 1.06 µM in the experiment on NCI-H23 lung. In the experiment on SK-MEL-2 melanoma, this molecule registered a TGI of 6.68 µM.

As for `CC#CC(=O)N1CCC[C@H]1c1nc(-c2ccc(C(=O)Nc3ccccn3)cc2)c2c(N)nccn12`, the GI50 with BT-549 breast is greater than 96.5 µM; in the experiment on OVCAR-5 ovarian, greater than 100 µM; in the experiment with HS 578T breast, greater than 72.5 µM; in the experiment on A498 renal it was 26.4 µM; in the experiment on SNB-75 CNS, 24.5 µM; in the experiment on NCI-H23 lung, greater than 100 µM. Further, the GI50 in the experiment on SK-MEL-2 melanoma is greater than 88.4 µM. Moreover, the TGI was greater than 100 µM in the experiment with BT-549 breast; greater than 100 µM in the experiment with OVCAR-5 ovarian; greater than 100 µM in the experiment on HS 578T breast; greater than 81.9 µM in the experiment on A498 renal; greater than 100 µM in the experiment with SNB-75 CNS; greater than 100 µM in the experiment on NCI-H23 lung. Besides, the TGI in the experiment on SK-MEL-2 melanoma is greater than 100 µM.
